Where two headings read alike, the source gives them in different places.
Tests used:
arrhythmia = assay: Test with aconitine (arrhythmia appearance time); type: in vivo, rats; conditions: for Appearance Time, ESV (ventricular extrasystoles): control 98; for Appearance Time, TV (ventricular tachycardium): control 112; for Appearance Time, FV (ventricular fibrillation): control 228; for Appearance Time, ESV (ventricular extrasystoles), %: vs control 98; for Appearance Time, TV (ventricular tachycardium), %: vs control 112
Source text: (§1) Antiarrhythmic activity in mice was observed by means of the Lawson test, using the method described by J. W. Lawson, J. Pharmacol. Exp. Therp., 160, 22-31 (1968) and Cr. Narcisse et al. Ann. Pharma. Fr., 37, 325-330 (1979), in rats by the test with aconitine of S. Witchitz et al. Coeur Med. Int., X(2), 281-286 (1971), and in dogs by the Harris test described in Circulation, 1, 1318 (1950). 3S-hydroxy-10,11-dihydroquinidine was used for each of these three tests.

[1] = system: anoxic ventricular fibrillation; assay: Lawson test (antifibrillatory power); type: in vivo, mice
Source text: as §1
The Lawson test enables the study of the cardiac antifibrillatory power of the derivatives of the present invention. […] The efficacity dose 50 (ED50) indicated in Table 4 is the dose which protects half of the mice against anoxic ventricular fibrillation.

[2] = set-up: species or system dogs; conditions: dog, in vivo, iv
Experimental: The parameters were recorded by means of: catheters connected to pressure sensors (arterial pressure, left ventricular pressure and its first dp/dt derivative); electromagnetic flowmeter on the aorta (aortic flow); electrocardiograph; strain gauge placed on the left ventricular myocardium (myocardiac contraction force).

ventricular arrhythmia = assay: Harris test; type: in vivo, dogs; conditions: for % Protection / % Protection, Average: dogs, I.V.; for % Protection, Average: average of Exp. 1 and 2
Source text: as §1

[3] = Electrophysiological study in anesthetized dog (closed thorax, bipolar catheter-electrodes); type: in vivo
Experimental: The study was carried out on a dog anesthetized with pentobarbital, with a closed thorax, by means of bipolar catheter-electrodes introduced into the cardiac cavities by transcutaneous venous and arterial tracts.
In this manner and by means of a programmable stimulator, sinusal automaticity, intracardiac conduction times, and the effective and functional cardiac refractory periods can be measured.

[4] = LD50 in mice (Lichfield and Wilcoxon method); conditions: mouse, in vivo, ip, mice (male and female), intraperitoneal, comparison; read-out: LD50 (average values)
Source text: For example, the results obtained with 3S-hydroxy-10,11-dihydroquinidine in the form of the hydrochloride salt are shown in Table 1 below.

With `CC[C@@]1(O)CN2CC[C@H]1C[C@@H]2[C@@H](O)c1ccnc2ccc(OC)cc12` [3S-hydroxy-10,11-dihydroquinidine, 3S-Hydroxy-10,11-dihydroquinidine] the “protective effect against arrhythmia (in words)” value (arrhythmia; compared with quinidine) was “greater than that of quinidine”, the “activity in the test with aconitine (in words)” value (arrhythmia; compared with quinidine, quantitative level) was “considerably more active than quinidine” and the “Appearance Time, ESV (ventricular extrasystoles)” value (arrhythmia; rats, I.V., 10 mg/kg) was 208 min. The “Appearance Time, TV (ventricular tachycardium)” value (arrhythmia; rats, I.V., 10 mg/kg) was 253 min, the “Appearance Time, FV (ventricular fibrillation)” value (arrhythmia; rats, I.V., 10 mg/kg) was 504 min and the “Appearance Time, ESV (ventricular extrasystoles), %” value (arrhythmia; rats, I.V., 10 mg/kg) was “+112%”. The “Appearance Time, TV (ventricular tachycardium), %” value (arrhythmia; rats, I.V., 10 mg/kg) was “+125%”, the “Appearance Time, FV (ventricular fibrillation), %” value (arrhythmia; rats, I.V., 10 mg/kg, vs control 228) was “+121%” and the ED50 ([1]; Mus musculus, ip, mice, I.P., read-out: ED 50 (dose which protects half of the mice against anoxic ventricular fibrillation)) was 72.5 mg/kg. For the same compound, the “antifibrillatory efficacity (in words)” value ([1]; compared with quinidine) was “comparable to that of quinidine”, the “cardiac flow (in words)” value [2] was “no significant change before a cumulative dose of 20 mg/kg is reached” and the “cardiac frequency (in words)” value [2] was “not significantly modified before a cumulative dose of 20 mg/kg is reached”. For the same compound, the “myocardiac contraction force (in words)” value [2] was “no change”, the “systolic arterial pressure (in words)” value [2] was “diminishes progressively with the dose, the effects only becoming considerable for a cumulative dose greater than 10 mg/kg” and the “Cardiac Flow, variation in relation to initial value” (from here on “Cardiac Flow, variation in relation”) ([2]; 0.5 mg/kg) was -50 ± 50 mL/min. The “Cardiac Frequency, variation in relation to initial value” (from here on “Cardiac Frequency, variation”) ([2]; 0.5 mg/kg) was -2 ± 6 beats/min, the “Force of Contractions of the Myocardium, variation in relation to initial value” (shortened to “Force of Contractions of the Myocardium”) ([2]; 0.5 mg/kg) was -3 ± 3 g and the “Systolic Arterial Pressure, variation in relation to initial value” (from here on “Systolic Arterial Pressure, variation”) ([2]; 0.5 mg/kg) was -11 ± 4 mmHg. For the same compound, the “Total Peripheral Resistance, variation in relation to initial value” (“Total Peripheral Resistance, variation” below) ([2]; 0.5 mg/kg) was -382 ± 180, the “Cardiac Flow, variation in relation” value ([2]; 4 mg/kg) was -90 ± 143 mL/min and the “Cardiac Frequency, variation” value ([2]; 4 mg/kg) was -5 ± 2 beats/min. The “Force of Contractions of the Myocardium” value ([2]; 4 mg/kg) was 0 ± 1 g, the “Systolic Arterial Pressure, variation” value ([2]; 4 mg/kg) was -20 ± 5 mmHg and the “Total Peripheral Resistance, variation” value ([2]; 4 mg/kg) was -457 ± 277. The “Cardiac Flow, variation in relation” value ([2]; 5 mg/kg) was -316 ± 412 mL/min, the “Cardiac Frequency, variation” value ([2]; 5 mg/kg) was -3 ± 16 beats/min and the “Force of Contractions of the Myocardium” value ([2]; 5 mg/kg) was 2 ± 1 g. The “Systolic Arterial Pressure, variation” value ([2]; 5 mg/kg) was -23 ± 7 mmHg, the “Total Peripheral Resistance, variation” value ([2]; 5 mg/kg) was -376 ± 227 and the “Cardiac Flow, variation in relation” value ([2]; 10 mg/kg) was -775 ± 498 mL/min. For the same compound, the “Cardiac Frequency, variation” value ([2]; 10 mg/kg) was -15 ± 13 beats/min, the “Force of Contractions of the Myocardium” value ([2]; 10 mg/kg) was 8 ± 1 g and the “Systolic Arterial Pressure, variation” value ([2]; 10 mg/kg) was -36 ± 13 mmHg. The “Total Peripheral Resistance, variation” value ([2]; 10 mg/kg) was -91, the “decrease in ventricular arrhythmia (in words)” value (ventricular arrhythmia; 6 mg/kg, compared with quinidine) was “greater with the compound of the present invention than with quinidine” and the “% Protection” value (ventricular arrhythmia; 6 mg/kg, 1 h, Exp. 1) was 65%. For the same compound, the “% Protection” value (ventricular arrhythmia; 6 mg/kg, 1 h, Exp. 2) was 39%, the “% Protection, Average” value (ventricular arrhythmia; 6 mg/kg, 1 h) was 52% and the “% Protection” value (ventricular arrhythmia; +10 mg/kg, 1 h, Exp. 1) was 72%. For the same compound, the “% Protection” value (ventricular arrhythmia; +10 mg/kg, 1 h, Exp. 2) was 42%, the “% Protection, Average” value (ventricular arrhythmia; +10 mg/kg, 1 h) was 57% and the “% Protection” value (ventricular arrhythmia; +10 mg/kg, 2 h, Exp. 1) was 97%. For the same compound, the “% Protection” value (ventricular arrhythmia; +10 mg/kg, 2 h, Exp. 2) was 41%, the “% Protection, Average” value (ventricular arrhythmia; +10 mg/kg, 2 h) was 69% and the “efficacity (in words)” value (ventricular arrhythmia; higher doses, compared with quinidine) was “comparable for higher doses”. The “Cardiac Cycle, percentage of variation” value ([3]; 1 mg/kg) was “+4.5%”, the “HV (HissPurkinje conduction), percentage of variation” value (“HV … percentage of variation” below) ([3]; 1 mg/kg) was “+10.8%” and the “PREA (Effective auricular refractory period), percentage of variation” value (“PREA … percentage of variation” below) ([3]; 1 mg/kg) was “+8%”. The “PREV (Effective ventricular refractory period), percentage of variation” value (“PREV … percentage of variation” below) ([3]; 1 mg/kg) was -1.5%, the “PRFN (Functional nodal refractory period), percentage of variation” value (from here on “PRFN … percentage of variation”) ([3]; 1 mg/kg) was 0% and the “QRS (Intraventricular conduction), percentage of variation” value (“QRS … percentage of variation” below) ([3]; 1 mg/kg) was “+14.4%”. The “QTc (Corrected repolarization time), percentage of variation” value (“QTc … percentage of variation” for short) ([3]; 1 mg/kg) was “+2.8%”, the “SH (AuriculoHissian conduction), percentage of variation” value (“SH … percentage of variation” below) ([3]; 1 mg/kg) was “+1.7%” and the “Cardiac Cycle, percentage of variation” value ([3]; 5 mg/kg) was “+5.1%”. The “HV … percentage of variation” value ([3]; 5 mg/kg) was “+20.9%”, the “PREA … percentage of variation” value ([3]; 5 mg/kg) was “+16%” and the “PREV … percentage of variation” value ([3]; 5 mg/kg) was “+2.8%”. The “PRFN … percentage of variation” value ([3]; 5 mg/kg) was “+5.5%”, the “QRS … percentage of variation” value ([3]; 5 mg/kg) was “+14.4%” and the “QTc … percentage of variation” value ([3]; 5 mg/kg) was “+7%”. The “SH … percentage of variation” value ([3]; 5 mg/kg) was “+3.8%”, the “Cardiac Cycle, percentage of variation” value ([3]; 10 mg/kg) was “+14. %” and the “HV … percentage of variation” value ([3]; 10 mg/kg) was “+32.8%”. The “PREA … percentage of variation” value ([3]; 10 mg/kg) was “+23.7%”, the “PREV … percentage of variation” value ([3]; 10 mg/kg) was “+6.5%” and the “PRFN … percentage of variation” value ([3]; 10 mg/kg) was “+12.6%”. The “QRS … percentage of variation” value ([3]; 10 mg/kg) was “+22%”, the “QTc … percentage of variation” value ([3]; 10 mg/kg) was “+6%” and the “SH … percentage of variation” value ([3]; 10 mg/kg) was “+15%”. For the same compound, the “cardiac frequency (in words)” value ([3]; compared with quinidine) was “slows cardiac frequency like quinidine”, the “cardiac refractory periods, level of the auricles (in words)” value ([3]; compared with quinidine) was “greater than those of quinidine” and the “cardiac refractory periods, ventricular and nodal stage (in words)” value ([3]; compared with quinidine) was “effects equivalent to those of quinidine”. For the same compound, the “conduction in the His-Purkinje system (in words)” value ([3]; compared with quinidine) was “effects greater than those of quinidine” and the “conduction between the auricles and the trunk of the His fasciculus (in words)” value ([3]; dog, in vivo) was “slightly changes conduction”.

With `C=C[C@H]1C[N@@]2CC[C@H]1C[C@@H]2[C@@H](O)c1ccnc2ccc(OC)cc12` [Quinidine, quinidine, reference compound] the “Appearance Time, ESV (ventricular extrasystoles)” value (arrhythmia; rats, I.V., 10 mg/kg) was 150 min, the “Appearance Time, TV (ventricular tachycardium)” value (arrhythmia; rats, I.V., 10 mg/kg) was 171 min and the “Appearance Time, FV (ventricular fibrillation)” value (arrhythmia; rats, I.V., 10 mg/kg) was 474 min. The “Appearance Time, ESV (ventricular extrasystoles), %” value (arrhythmia; rats, I.V., 10 mg/kg) was “+53%”, the “Appearance Time, TV (ventricular tachycardium), %” value (arrhythmia; rats, I.V., 10 mg/kg) was “+52%” and the LD50 [4] was 225 to 235 mg/kg. For the same compound, the “% Protection” value (ventricular arrhythmia; quinidine, 6 mg/kg, 1 h) was 21%, the “% Protection” value (ventricular arrhythmia; quinidine, +5 mg, 1 h) was 55% and the “% Protection” value (ventricular arrhythmia; quinidine, +5 mg, 2 h) was 52%. The “Cardiac Cycle, percentage of variation” value ([3]; 1 mg/kg) was “+2.7%”, the “HV … percentage of variation” value ([3]; 1 mg/kg) was 0% and the “PREA … percentage of variation” value ([3]; 1 mg/kg) was “+2%”. For the same compound, the “PREV … percentage of variation” value ([3]; 1 mg/kg) was “+3.3%”, the “PRFN … percentage of variation” value ([3]; 1 mg/kg) was “+3%” and the “QRS … percentage of variation” value ([3]; 1 mg/kg) was 0%. The “QTc … percentage of variation” value ([3]; 1 mg/kg) was “+1.8%”, the “SH … percentage of variation” value ([3]; 1 mg/kg) was “+3.5%” and the “Cardiac Cycle, percentage of variation” value ([3]; 5 mg/kg) was “+5.1%”. The “HV … percentage of variation” value ([3]; 5 mg/kg) was “+8.7%”, the “PREA … percentage of variation” value ([3]; 5 mg/kg) was “+3.5%” and the “PREV … percentage of variation” value ([3]; 5 mg/kg) was “+6.5%”. The “PRFN … percentage of variation” value ([3]; 5 mg/kg) was “+5%”, the “QRS … percentage of variation” value ([3]; 5 mg/kg) was 0% and the “QTc … percentage of variation” value ([3]; 5 mg/kg) was 0%. The “SH … percentage of variation” value ([3]; 5 mg/kg) was “+7.2%”, the “Cardiac Cycle, percentage of variation” value ([3]; 10 mg/kg) was “+9.2%” and the “HV … percentage of variation” value ([3]; 10 mg/kg) was “+17.7%”. For the same compound, the “PREA … percentage of variation” value ([3]; 10 mg/kg) was “+14.4%”, the “PREV … percentage of variation” value ([3]; 10 mg/kg) was “+8.5%” and the “PRFN … percentage of variation” value ([3]; 10 mg/kg) was “+9%”. For the same compound, the “QRS … percentage of variation” value ([3]; 10 mg/kg) was 0%, the “QTc … percentage of variation” value ([3]; 10 mg/kg) was “+1.5%” and the “SH … percentage of variation” value ([3]; 10 mg/kg) was “+10.5%”.

— patent publication US4716171A (Etablissements Nativelle S.A., priority 1981, dated 1987)
